In patent US20250179094A1, “TGF-B INHIBITOR COMPOUND AND USE THEREOF” (Medinno Pharmaceutical Technology (Zhuhai) Co., Ltd., priority 2022, published 2025):

target: human TGFβR1 (Homo sapiens (Human), UniProt P36897); experiment: TGFβR1 kinase activity assay (ADP-Glo method); type: biochemical; conditions: ATP 5 uM, TGFβR1tide substrate, 60 minutes at room temperature
Procedure: The principle of the activity assay was that TGFβR1 phosphorylates the substrate TGFβR1tide, consuming ATP in the process. […] The specific experimental steps were as follows. Compounds were diluted 4-fold in DMSO in a dilution plate, with the final starting concentration of the compounds being 10 μM, across 10 concentration gradient points. The compounds were then further diluted 50-fold into the kinase reaction buffer and incubated on a shaker for 20 minutes. Kinase was formulated with an enzyme reaction buffer. 2 μl kinase was added to each well of the reaction plate. 1 μl of the compound diluted in buffer was added to each well, and then the plate was sealed with a sealing membrane and centrifuged at 1000 g for 30 seconds, leaving it at room temperature for 10 minutes. Solutions of TGFβR1tide and ATP were prepared with the kinase reaction buffer, and 2 μL of the TGFβR1tide/ATP solution was added to the reaction plate. The plate was sealed with a sealing film and centrifuged at 1000 g for 30 seconds. It was allowed to react at room temperature for 60 minutes. Subsequently, 4 μL of ADP-Glo was transferred to a 384-well reaction plate and centrifuged at 1000 rpm/min for 1 minute, followed by incubation at 25° C. for 40 minutes. Then, 8 μL of Detection solution was transferred to the 384-well reaction plate and centrifuged at 1000 rpm/min for 1 minute, after which it was incubated at 25° C. for 40 minutes. The RLU (Relative Luminescence Unit) signal was read using a BMG microplate reader, which was used to characterize the degree of kinase activity.
3.1 The inhibition rate was calculated as follows: inhibition rate of compound (% inh)=100%−(compound−positive control)/(negative control−positive control)*100%.
The IC50 (half inhibition concentration) of a compound was obtained using the following non-linear fitting equation, wherein data analysis was performed using Graphpad 7.0 software.
X: log value of compound concentration; and Y: inhibition rate (% inhibition)

Chain of human TGFβR1 (P36897 34-503): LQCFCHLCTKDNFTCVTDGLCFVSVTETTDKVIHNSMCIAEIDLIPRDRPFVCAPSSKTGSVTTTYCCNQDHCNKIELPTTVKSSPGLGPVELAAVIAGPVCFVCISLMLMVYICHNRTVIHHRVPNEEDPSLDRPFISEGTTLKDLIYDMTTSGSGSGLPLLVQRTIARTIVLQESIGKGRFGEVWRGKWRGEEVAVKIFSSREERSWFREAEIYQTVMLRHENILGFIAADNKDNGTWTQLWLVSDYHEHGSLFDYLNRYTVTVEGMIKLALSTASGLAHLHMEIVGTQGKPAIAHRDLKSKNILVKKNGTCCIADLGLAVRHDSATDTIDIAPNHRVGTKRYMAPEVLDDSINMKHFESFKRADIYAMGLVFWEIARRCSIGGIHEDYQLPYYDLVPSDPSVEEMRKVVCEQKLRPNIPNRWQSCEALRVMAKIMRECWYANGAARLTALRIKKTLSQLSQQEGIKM

Row | IC50 [nM] | SMILES
1 | 25 | Cc1cccc(-c2nc3n(c2-c2ccnc(-c4nc5c([nH]4)CN(C4CCC(O)CC4)C5)c2)CCC3)n1 (centres unmarked) [Compound 25, 4-(2-(4-(2-(6-Methylpyridin-2-yl)-6,7-dihydro-5H-pyrrolo[1,2-a]imidazol-3-yl)pyridin-2-yl)-4,6-dihydropyrrolo[3,4-d]imidazol-5(1H)-yl)cyclohexan-1-ol]
2 | 5.4 | Cc1cccc(-c2nc3n(c2-c2ccnc(-c4nc5c([nH]4)CN(S(C)(=O)=O)C5)c2)CCC3)n1 [Compound 9, 2-(4-(2-(6-Methylpyridin-2-yl)-6,7-dihydro-5H-pyrrolo[1,2-a]imidazol-3-yl)pyridin-2-yl)-5-(methylsulfonyl)-1,4,5,6-tetrahydropyrrolo[3,4-d]imidazole]
3 | 2 | Cc1cccc(-c2nn(C)cc2-c2ccnc(-c3nc4c([nH]3)CN(S(C)(=O)=O)C4)c2)n1 [Compound 39, 2-[4-(1-Methyl-3-(6-methylpyridin-2-yl)-1H-pyrazol-4-yl)pyridin-2-yl]-5-(methylsulfonyl)-1,4,5,6-tetrahydropyrrolo[3,4-d]imidazole]
4 | 1.6 | Cc1cccc(-c2nc3n(c2-c2ccnc(-c4nc5c([nH]4)CN(S(C)(=O)=O)CC5)c2)CCC3)n1 [Compound 63, 2-(4-(2-(6-methylpyridin-2-yl)-6,7-dihydro-5H-pyrrolo[1,2-a]imidazol-3-yl)pyridin-2-yl)-5-(methylsulfonyl)-4,5,6,7-tetrahydro-3H-imidazolo[4,5-c]pyridine]
5 | 2 | Cc1cccc(-c2nn3c(c2-c2ccnc(-c4nc5c([nH]4)CN(C(=O)N(C)C)C5)c2)CCC3)n1 [Compound 67, N,N-Dimethyl-2-(4-(2-(6-methylpyridin-2-yl)-5,6-dihydro-4H-pyrrolo[1,2-b]pyrazol-3-yl)pyridin-2-yl)-4,6-dihydropyrrolo[3,4-d]imidazole-5(1H)-carboxamide]
6 | 0.7 | Cc1cccc(-c2nn3c(c2-c2ccnc(-c4nc5c([nH]4)CN(C(=O)C4CC(O)C4)C5)c2)CCC3)n1 (centres unmarked) [Compound 65, (3-Hydroxycyclobutyl)(2-(4-(2-(6-methylpyridin-2-yl)-5,6-dihydro-4H-pyrrolo[1,2-b]pyrazol-3-yl)pyridin-2-yl)-4,6-dihydropyrrolo[3,4-d]imidazol-5(1H)-yl)ketone]
7 | 1.7 | CCN(C)C(=O)N1Cc2nc(-c3cc(-c4c(-c5cccc(C)n5)nn5c4CCC5)ccn3)[nH]c2C1 [Compound 74, N-Ethyl-N-methyl-2-(4-(2-(6-methylpyridin-2-yl)-5,6-dihydro-4H-pyrrolo[1,2-b]pyrazol-3-yl)pyridin-2-yl)-4,6-dihydropyrrolo[3,4-d]imidazole-5(1H)-carboxamide]
8 | 4.3 | Cc1cccc(-c2nc3n(c2-c2ccnc(-c4nc5c([nH]4)CN(CC(C)O)C5)c2)CCC3)n1 (centres unmarked) [Compound 12, 1-(2-(4-(2-(6-Methylpyridin-2-yl)-6,7-dihydro-5H-pyrrolo[1,2-a]imidazol-3-yl)pyridin-2-yl)-4,6-dihydropyrrolo[3,4-d]imidazol-5(1H)-yl)propan-2-ol]
9 | 21 | CC(=O)N1Cc2nc(-c3cc(-c4c(-c5cccc(C)n5)nc5n4CCC5)ccn3)[nH]c2C1 [Compound 1, 1-(2-(4-(2-(6-methylpyridin-2-yl)-6,7-dihydro-5H-pyrrolo[1,2-a]imidazol-3-yl)pyridin-2-yl)-4,6-dihydropyrrolo[3,4-d]imidazol-5(1H)-yl)ethan-1-one]
10 | 7.9 | Cc1cccc(-c2nc3n(c2-c2ccnc(-c4nc5c([nH]4)CN(C(=O)N4CCOCC4)C5)c2)CCC3)n1 [Compound 14]
11 | 2.8 | Cc1cccc(-c2nn3c(c2-c2ccnc(-c4nc5c([nH]4)CN(C(=O)C4CCN(C)CC4)C5)c2)CCC3)n1 [Compound 73, (1-Methylpiperidin-4-yl)(2-(4-(2-(6-methylpyridin-2-yl)-5,6-dihydro-4H-pyrrolo[1,2-b]pyrazol-3-yl)pyridin-2-yl)-4,6-dihydropyrrolo[3,4-d]imidazol-5(1H)-yl)ketone]
12 | 9.2 | Cc1cccc(-c2n[nH]cc2-c2ccnc(-c3nc4c([nH]3)CN(C(=O)N(C)C)C4)c2)n1 [Compound 59, N,N-Dimethyl-2-(4-(3-(6-methylpyridin-2-yl)-1H-pyrazol-4-yl)pyridin-2-yl)-4,6-dihydro pyrrolo[3,4-d]imidazol-5(1H)-carboxamide]
13 | 1.8 | Cc1cccc(-c2nn(C)cc2-c2ccnc(-c3nc4c([nH]3)CN(C(=O)N(C)C)C4)c2)n1 [Compound 58, N,N-Dimethyl-2-(4-(1-methyl-3-(6-methylpyridin-2-yl)-1H-pyrazol-4-yl)pyridin-2-yl)-4,6-dihydropyrrolo[3,4-d]imidazol-5(1H)-carboxamide]
14 | 5.6 | Cc1cccc(-c2nc3n(c2-c2ccnc(-c4nc5c([nH]4)CNCC5)c2)CCC3)n1 [Compound 75, 2-(4-(2-(6-Methylpyridin-2-yl)-6,7-dihydro-5H-pyrrolo[1,2-a]imidazol-3-yl)pyridin-2-yl)-4,5,6,7-tetrahydro-3H-imidazolo[4,5-c]pyridine]
15 | 6.2 | Cc1cccc(-c2nn(CC(C)O)cc2-c2ccnc(-c3nc4c([nH]3)CNC4)c2)n1 (centres unmarked) [Compound 44, 3-(3-(6-Methylpyridin-2-yl)-4-(2-(1,4,5,6-tetrahydropyrrolo[3,4-d]imidazol-2-yl)pyridin-4-yl)-1H-pyrazol-1-yl)propan-2-ol]
16 | 2.2 | Cc1cccc(-c2nc3n(c2-c2ccnc(-c4nc5c([nH]4)CN(C(=O)C4CC(O)C4)C5)c2)CCC3)n1 (centres unmarked) [Compound 10, (3-Hydroxycyclobutyl)(2-(4-(2-(6-methylpyridin-2-yl)-6,7-dihydro-5H-pyrrolo[1,2-a]imidazol-3-yl)pyridin-2-yl)-4,6-dihydropyrrolo[3,4-d]imidazol-5(1H)-yl)ketone]
17 | 27 | Cc1cccc(-c2nn(C)cc2-c2ccnc(-c3nc4c([nH]3)CN(C(=O)C3CC(O)C3)C4)c2)n1 (centres unmarked) [Compound 42, (3-Hydroxycyclobutyl)(2-(4-(1-methyl-3-(6-methylpyridin-2-yl)-1H-pyrazol-4-yl)pyridin-2-yl)-4,6-dihydropyrrolo[3,4-d]imidazol-5(1H)-yl)ketone]
18 | 2.3 | CCN(C)C(=O)N1Cc2nc(-c3cc(-c4c(-c5cccc(C)n5)nc5n4CCC5)ccn3)[nH]c2C1 [Compound 32, N-Ethyl-N-methyl-2-(4-(2-(6-methylpyridin-2-yl)-6,7-dihydro-5H-pyrrolo[1,2-a]imidazol-3-yl)pyridin-2-yl)-4,6-dihydropyrrolo[3,4-d]imidazol-5(1H)-carboxamide]
19 | 4.1 | Cc1cccc(-c2nc3n(c2-c2ccnc(-c4nc5c([nH]4)CN(CC4CC(O)C4)C5)c2)CCC3)n1 (centres unmarked) [Compound 26, 3-((2-(4-(2-(6-Methylpyridin-2-yl)-6,7-dihydro-5H-pyrrolo[1,2-a]imidazol-3-yl)pyridin-2-yl)-4,6-dihydropyrrolo[3,4-d]imidazol-5(1H)-yl)methyl)cyclobutanol]
20 | 4 | Cc1cccc(-c2nn3c(c2-c2ccnc(-c4nc5c([nH]4)CN(S(C)(=O)=O)C5)c2)CCC3)n1 [Compound 66, 2-(4-(2-(6-Methylpyridin-2-yl)-5,6-dihydro-4H-pyrrolo[1,2-b]pyrazol-3-yl)pyridin-2-yl)-5-(methylsulfonyl)-1,4,5,6-tetrahydropyrrolo[3,4-d]imidazole]
